Values joined by “and” are separate entries in the source; they are usually repeats but may differ in a detail not shown here. Identical values can stand only once. Toxic doses and inconclusive results are not listed.
System: P388 leukemia ip, CD2F1 mice, survival T/C
Experiment: NCI In Vivo Anticancer Drug Screen. Data for tumor model P388 Leukemia (intraperitoneal) in CD2F1 (CDF1) mice
Settings: endpoint: median survival time, higher = longer survival
In short: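 Mice carrying the transplanted tumor received test compound or vehicle. Survival was recorded in each group, and the value is the treated-group measurement divided by that of the vehicle-treated control group.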

[1] = dose: 50.0 mg/kg/injection, schedule: Q01DX005 (ip), vehicle: saline with Tween-80
[2] = dose: 100.0 mg/kg/injection, schedule: Q01DX005 (ip), vehicle: saline with Tween-80
[3] = dose: 50.0 mg/kg/injection, schedule: Q01DX009 (ip), vehicle: saline with Tween-80
[4] = dose: 100.0 mg/kg/injection, schedule: Q01DX009 (ip), vehicle: saline with Tween-80
[5] = dose: 200.0 mg/kg/injection, schedule: Q01DX009 (ip), vehicle: saline with Tween-80
[6] = dose: 12.5 mg/kg/injection, schedule: Q01DX009 (ip), vehicle: saline with Tween-80
[7] = dose: 25.0 mg/kg/injection, schedule: Q01DX009 (ip), vehicle: saline with Tween-80
[8] = dose: 60.0 mg/kg/injection, schedule: Q01DX005 (ip), vehicle: Klucel (hydroxypropylcellulose) (HPC)
[9] = dose: 120.0 mg/kg/injection, schedule: Q01DX005 (ip), vehicle: Klucel (hydroxypropylcellulose) (HPC)
[10] = dose: 240.0 mg/kg/injection, schedule: Q01DX005 (ip), vehicle: Klucel (hydroxypropylcellulose) (HPC)
[11] = dose: 60.0 mg/kg/injection, schedule: Q01DX005 (ip), vehicle: saline with Tween-80
[12] = dose: 200.0 mg/kg/injection, schedule: Q01DX005 (ip), vehicle: saline with Tween-80
[13] = dose: 100.0 mg/kg/injection, schedule: Q01DX001 (ip), vehicle: saline
[14] = dose: 400.0 mg/kg/injection, schedule: Q01DX009 (ip), vehicle: saline with Tween-80
[15] = dose: 50.0 mg/kg/injection, schedule: Q01DX001 (ip), vehicle: saline with Tween-80
[16] = dose: 100.0 mg/kg/injection, schedule: Q01DX001 (ip), vehicle: saline with Tween-80
[17] = dose: 200.0 mg/kg/injection, schedule: Q01DX001 (ip), vehicle: saline with Tween-80
[18] = dose: 400.0 mg/kg/injection, schedule: Q01DX001 (ip), vehicle: saline with Tween-80

## Nc1nc(Sc2ccc([N+](=O)[O-])c3nonc23)c2[nH]cnc2n1
dose: 12.5 mg/kg/injection, schedule: Q01DX009 (ip), vehicle: Klucel (hydroxypropylcellulose) (HPC)
  T/C: 115 % of control
dose: 25.0 mg/kg/injection, schedule: Q01DX009 (ip), vehicle: Klucel (hydroxypropylcellulose) (HPC)
  T/C: 88 % of control

## CCCCCCCCCCCCCCCC(=O)N(CCCCN(C(=O)CCCCCCCCCCCCCCC)C(C)CCCN(CC)CC)C(C)CCCN(CC)CC (stereo unspecified)
dose: 25.0 mg/kg/injection, schedule: Q01DX009 (ip), vehicle: other
  T/C: 93 % of control
dose: 50.0 mg/kg/injection, schedule: Q01DX009 (ip), vehicle: other
  T/C: 93 % of control

## CCc1nc(N)nc(N)c1-c1ccc(Cl)c(NN=NC)c1
dose: 12.5 mg/kg/injection, schedule: Q01DX005 (ip), vehicle: saline with Tween-80
  T/C: 109 % of control
dose: 25.0 mg/kg/injection, schedule: Q01DX005 (ip), vehicle: saline with Tween-80
  T/C: 108 % of control
[1]
  T/C: 105 % of control and 110 % of control
[2]
  T/C: 112 % of control

## NC(CSS(=O)(=O)O)C(=O)O (stereo unspecified)
dose: 50.0 mg/kg/injection, schedule: Q01DX005 (ip), vehicle: saline
  T/C: 101 % of control
dose: 100.0 mg/kg/injection, schedule: Q01DX005 (ip), vehicle: saline
  T/C: 106 % of control
dose: 200.0 mg/kg/injection, schedule: Q01DX005 (ip), vehicle: saline
  T/C: 101 % of control

## CCCCS/C=C1\CCc2cc(OC)ccc2C12CC1=C(CCc3cc(OC)ccc31)C(SCCCC)C2 (stereo unspecified)
[3]
  T/C: 94 % of control
[4]
  T/C: 88 % of control
[5]
  T/C: 87 % of control

## [N-]=[N+]=NC(=O)c1cccs1
[6]
  T/C: 100 % of control
[7]
  T/C: 101 % of control
[3]
  T/C: 100 % of control

## Cc1c2cc[n+](CCO)cc2c(C)c2c1[nH]c1ccc(O)cc12
dose: 0.79 mg/kg/injection, schedule: Q04DX003 (ip), vehicle: saline
  T/C: 155 % of control
dose: 1.56 mg/kg/injection, schedule: Q04DX003 (ip), vehicle: saline
  T/C: 165 % of control
dose: 3.12 mg/kg/injection, schedule: Q04DX003 (ip), vehicle: saline
  T/C: 165 % of control
dose: 6.25 mg/kg/injection, schedule: Q04DX003 (ip), vehicle: saline
  T/C: 155 % of control
dose: 12.5 mg/kg/injection, schedule: Q04DX003 (ip), vehicle: saline
  T/C: 100 % of control
dose: 25.0 mg/kg/injection, schedule: Q04DX003 (ip), vehicle: saline
  T/C: 92 % of control

## CN(C)c1ccc(/C=N\N=C/c2ccc(N(C)C)cc2)cc1
[8]
  T/C: 88 % of control
[9]
  T/C: 87 % of control
[10]
  T/C: 86 % of control

## C=C(OC)C(Nc1cc(OC)c(OC)cc1C(=O)OC1CC(O[C@@H]2C(=O)C(NC(=O)OC)=C3/C(=C\CSSSC)[C@]2(O)C#C/C=C\C#C[C@@H]3OC2OC(C)C(NOC3CC(O)C(SC)C(C)O3)C(O)C2OC2CC(OC)C(NCCC)CO2)OC(C)C1O)OC (stereo partly specified)
dose: 1.28 micrograms/kg/injection, schedule: Q01DX005 (ip), vehicle: alcohol
  T/C: 163 % of control
dose: 2.5 micrograms/kg/injection, schedule: Q01DX005 (ip), vehicle: saline + alcohol
  T/C: 88 % of control
dose: 2.5 nanograms/kg/injection, schedule: Q01DX005 (ip), vehicle: saline + alcohol
  T/C: 120 % of control
dose: 2.56 micrograms/kg/injection, schedule: Q01DX005 (ip), vehicle: alcohol
  T/C: 155 % of control and 177 % of control
dose: 5.0 nanograms/kg/injection, schedule: Q01DX005 (ip), vehicle: saline + alcohol
  T/C: 118 % of control
dose: 5.12 micrograms/kg/injection, schedule: Q01DX005 (ip), vehicle: alcohol
  T/C: 115 % of control
dose: 10.0 nanograms/kg/injection, schedule: Q01DX005 (ip), vehicle: saline + alcohol
  T/C: 123 % of control
dose: 320.0 nanograms/kg/injection, schedule: Q01DX005 (ip), vehicle: saline + alcohol
  T/C: 164 % of control
dose: 640.0 nanograms/kg/injection, schedule: Q01DX005 (ip), vehicle: saline + alcohol
  T/C: 174 % of control
dose: 1280.0 nanograms/kg/injection, schedule: Q01DX005 (ip), vehicle: saline + alcohol
  T/C: 95 % of control

## c1ccc(-c2nc3cccnc3s2)cc1
[11]
  T/C: 101 % of control
dose: 120.0 mg/kg/injection, schedule: Q01DX005 (ip), vehicle: saline with Tween-80
  T/C: 101 % of control
dose: 240.0 mg/kg/injection, schedule: Q01DX005 (ip), vehicle: saline with Tween-80
  T/C: 104 % of control

## O=C1CC2C(=O)NC(=O)C2C(=O)N1 (stereo unspecified)
[1]
  T/C: 104 % of control
[2]
  T/C: 101 % of control
[12]
  T/C: 99 % of control

## Cc1c(C=[N+]2CCCCC2)c2ccccc2n1C
dose: 6.25 mg/kg/injection, schedule: Q01DX009 (ip), vehicle: saline with Tween-80
  T/C: 100 % of control
[6]
  T/C: 109 % of control
[7]
  T/C: 109 % of control and 120 % of control
[3]
  T/C: 104 % of control and 118 % of control
[4]
  T/C: 103 % of control

## CCC(C)C1=NCCCN1 (stereo unspecified)
[13]
  T/C: 100 % of control

## CC1C2=C(CCCC2=O)O/C1=N\O (stereo unspecified)
dose: 100.0 mg/kg/injection, schedule: Q04DX003 (ip), vehicle: Klucel (hydroxypropylcellulose) (HPC)
  T/C: 96 % of control
dose: 200.0 mg/kg/injection, schedule: Q04DX003 (ip), vehicle: Klucel (hydroxypropylcellulose) (HPC)
  T/C: 90 % of control
dose: 400.0 mg/kg/injection, schedule: Q04DX003 (ip), vehicle: Klucel (hydroxypropylcellulose) (HPC)
  T/C: 93 % of control

## COc1ccc(C(=O)O)c(N)c1
[4]
  T/C: 90 % of control
[5]
  T/C: 95 % of control
[14]
  T/C: 109 % of control

## CCCCCCCCCCCOCC(=O)OC
[3]
  T/C: 99 % of control
[4]
  T/C: 101 % of control
[5]
  T/C: 100 % of control

## CC1(C)CC(=O)N(Cc2ccccc2)N1C(=O)c1ccccc1
[15]
  T/C: 100 % of control
[16]
  T/C: 95 % of control
[17]
  T/C: 100 % of control

## C=CC[S+]1CCCCC1C=C (stereo unspecified)
[16]
  T/C: 94 % of control
[17]
  T/C: 95 % of control
[18]
  T/C: 95 % of control

## O=C1CSC(c2ccccc2F)N1c1nncs1 (stereo unspecified)
dose: 30.0 mg/kg/injection, schedule: Q01DX005 (ip), vehicle: Klucel (hydroxypropylcellulose) (HPC)
  T/C: 100 % of control
[8]
  T/C: 99 % of control
[9]
  T/C: 100 % of control
[10]
  T/C: 110 % of control

## COc1c(OC(C)=O)ccc2c1C=CCCC2=O
[4]
  T/C: 104 % of control
[5]
  T/C: 102 % of control
[14]
  T/C: 102 % of control

## CN(CC(=O)O)c1ccc(/C=C/c2ccnc3ccccc23)cc1
[15]
  T/C: 100 % of control
[16]
  T/C: 97 % of control
[17]
  T/C: 103 % of control
[18]
  T/C: 101 % of control

## c1ccc(C23CCCCC2O3)cc1 (stereo unspecified)
[8]
  T/C: 102 % of control
[9]
  T/C: 107 % of control
[10]
  T/C: 111 % of control

## S=c1n(-c2ccc(Cl)cc2)c2/c(=N\Nc3cc(Cl)ccc3Cl)c(n1-c1ccccn1)=NCCN=2
dose: 15.0 mg/kg/injection, schedule: Q01DX005 (ip), vehicle: saline with Tween-80
  T/C: 98 % of control
dose: 30.0 mg/kg/injection, schedule: Q01DX005 (ip), vehicle: saline with Tween-80
  T/C: 112 % of control
[11]
  T/C: 99 % of control and 112 % of control

## CC(/C=C/c1ccccc1)=Nc1ccc(Cl)cc1
[7]
  T/C: 100 % of control and 107 % of control
[3]
  T/C: 100 % of control and 101 % of control and 107 % of control
[4]
  T/C: 100 % of control and 101 % of control
[5]
  T/C: 98 % of control

## O=c1c2cc(Cl)ccc2on1CN1CCOCC1
[1]
  T/C: 111 % of control
[2]
  T/C: 118 % of control
[12]
  T/C: 111 % of control

## O=c1c2c([nH]n1-c1ccccc1)-c1ccccc1CS2
[7]
  T/C: 105 % of control
[3]
  T/C: 104 % of control
[4]
  T/C: 117 % of control

## O=C(Nc1ccc(Cl)c(Cl)c1)Sc1ccc(O)cc1
dose: 12.5 mg/kg/injection, schedule: Q01DX009 (ip), vehicle: saline
  T/C: 91 % of control
dose: 25.0 mg/kg/injection, schedule: Q01DX009 (ip), vehicle: saline
  T/C: 91 % of control
[3]
  T/C: 96 % of control
dose: 50.0 mg/kg/injection, schedule: Q01DX009 (ip), vehicle: saline
  T/C: 117 % of control
[4]
  T/C: 91 % of control

## O=C(C1CO1)C(Cl)(Cl)Cl (stereo unspecified)
dose: 3.12 mg/kg/injection, schedule: Q01DX001 (ip), vehicle: saline
  T/C: 107 % of control
dose: 6.25 mg/kg/injection, schedule: Q01DX001 (ip), vehicle: saline
  T/C: 107 % of control
dose: 12.5 mg/kg/injection, schedule: Q01DX001 (ip), vehicle: saline
  T/C: 116 % of control
dose: 25.0 mg/kg/injection, schedule: Q01DX001 (ip), vehicle: saline
  T/C: 120 % of control and 122 % of control
dose: 50.0 mg/kg/injection, schedule: Q01DX001 (ip), vehicle: saline
  T/C: 113 % of control
[13]
  T/C: 111 % of control

Source: PubChem BioAssay AID330 (DTP/NCI, 2004)
